One test is filed under the species Bos taurus. In words: Relative affinity for alpha-1 and alpha-2 adrenergic receptors. Details: reference not given here.
Test [1] in a line: Displacement of [3H]clonidine from alpha-2-adrenergic receptor of calf neocortical membrane. Details: species or system Bos taurus. (In a radioligand displacement assay an active substance lowers the binding of a labelled ligand.)
Test [2] can be described thus: Displacement of [3H]prazosin from alpha-1-adrenergic receptor of calf neocortical membrane. More on the design: species or system Bos taurus.

Each structure is given as a SMILES string.

By Kd is commonly meant the concentration at which binding is half-saturated.

With `c1cn2c(N3CCNCC3)cncc2n1`, the Ratio in the test filed under Bos taurus amounted to 1.8. The Kd is 28100 nM in test [1] and 51000 nM in test [2] (read-out: Kd).
For `c1ccc(-c2cn3ccnc3c(N3CCNCC3)n2)cc1`, in that order: 0.2, 1800 nM and 360 nM.
The matching figures for `Clc1cncc(N2CCNCC2)n1` [MK-212]: 16, 150 nM and 2400 nM.
On to `c1cn2ccnc2c(N2CCNCC2)n1`, for which the Ratio in the test listed under Bos taurus was determined as 160. For the same molecule, the dissociation constant Kd in test [1] turned out to be 19 nM; in test [2] (read-out: Kd), 3100 nM.
The matching figures for `c1ccc2c(c1)N=C(N1CCNCC1)C1=NCCN12`: 0.72, 1800 nM and 1300 nM.
The matching figures for `Clc1cn2c3c(nc2c(N2CCNCC2)n1)CCCC3`: 0.13, 1500 nM and 200 nM.
Take `CN1CCN2c3ccccc3Cc3ccccc3C2C1` (configuration not stated) [MIANSERIN]: the Ratio in the test filed under Bos taurus amounted to 2.3. The Kd in test [1] was 19 nM; in test [2], 43 nM.
Take `ClC1=CN2CCN=C2C(N2CCNCC2)=N1`: the Ratio in the test filed under Bos taurus came to 1.9. Further, the results for the dissociation constant Kd in test [1] and in test [2] (read-out: Kd) were 1600 nM and 3000 nM, respectively.
As for `Clc1cnc2c(N3CCNCC3)nccn12`, the Ratio in the test filed under Bos taurus is 9.6. In addition, the dissociation constant Kd was 290 nM in test [1] and 2780 nM in test [2] (read-out: Kd).
For `Clc1cn2ccnc2c(N2CCNCC2)n1`, in that order: 2.8, 88 nM and 250 nM.
For the molecule `Cc1cnc2c(N3CCNCC3)nc(Cl)cn12`, in the test filed under Bos taurus, the Ratio is 0.64. In addition, the Kd in test [1] worked out at 250 nM; in test [2] (read-out: Kd), 160 nM.
The matching figures for `CN1CCN(c2nc(Cl)cn3ccnc23)CC1`: 2.6, 144 nM and 380 nM.
The matching figures for `Clc1cn2c(Cl)cnc2c(N2CCNCC2)n1`: 0.4, 1000 nM and 410 nM.
As for `Clc1cnc2cnc(N3CCNCC3)cn12`, the Ratio in the test filed under Bos taurus is 0.36. The equilibrium dissociation constant (Kd) in test [1] turned out to be 18900 nM; in test [2] (read-out: Kd), 6800 nM.

These data come from ChEMBL document CHEMBL1122454, “Piperazinylimidazo[1,2-a]pyrazines with selective affinity for in vitro alpha-adrenergic receptor subtypes” (J Med Chem, 1983).
